# Data from US20230278987A1, “Antimicrobial Compounds and Methods” (Curza Global, LLC, priority 2019, published 2023).
# Counter-ions that a name gives are not always drawn. Like-named read-outs stand apart in the source and are kept apart here.
# Assays:
# [1] = tested on: A.baumannii (Ab); assay: Broth microdilution MIC against A.baumannii (Ab); format: cell-based; settings: for MIC: Acinetobacter baumannii, read-out: Ab +bicarb 25 (MIC)
# Procedure: (§1) A certified BSL-2 laboratory was used for testing. Compounds were evaluated using the broth microdilution minimum inhibitory concentration (MIC) and minimum bactericidal concentration (MBC) assays defined by Clinical and Laboratory Standards Institute (CLSI) in the M26-A guideline against S.aureus (Sa), E.coli (Ec), K.pneumoniae (Kp), A.baumannii (Ab), E.faecalis (Ef) and P.aeruginosa (Pa).
# (§2) MICs were determined using the Clinical Laboratory and Standards Institute (CLSI) Broth Microdilution Method with slight modification. Clinical and Laboratory Standards Institute (2012). “Methods for dilution antimicrobial susceptibility tests for bacteria that grow aerobically; approved standard, 9th ed. M07-A9. Clinical and Laboratory Standards Institute, Wayne, PA.” Serial two-fold dilutions of compounds are prepared in sterile clear roundbottom 96-well plates.
# (§3) To prepare microdilution trays, two-fold dilutions of antimicrobial agent are prepared in growth medium: Cation-Adjusted Mueller-Hinton Broth (CAMHB), or CAMHB supplemented with sodium bicarbonate (6.25 or 25 mM final concentration prepared from a 1.0 M stock solution) or CAMHB supplemented with heat inactivated human serum (Fisher Cat. # BP2657100) 0-50% by adding 200 µL of the highest concentration to be tested (64 µg/mL, for example) in row A, mixing and transferring 100 µL from row A to 100 µL growth medium in row B, then repeating the mixing and transferring through row H of the 96-well plate, discarding the excess 100 µL remaining. This slight modification to the CLSI protocol enables evaluation of MICs for 3 compounds per plate in triplicate, albeit with only 8 compound dilutions (CLSI protocol enables 2 compounds in triplicate with 10 dilutions). Bacterial suspensions are added to a final concentration of 5 × 10^4 CFU/well by adding 5 µL of a 1:10 dilution of a 0.5 McFarland suspension (1 × 10^8 CFU/mL) for each bacterium evaluated. Bacterial suspensions were prepared using the growth method described by CLSI. Well-isolated colonies (3-5 from an agar plate) were selected using a sterile loop and used to inoculate a tube containing 4 mL of CAMHB. The cultures are incubated at 35 ± 2° C. until it achieves or exceeds the turbidity of the 0.5 McFarland standard, determined by measuring A600nm (usually two to six hours). When growth exceeds a 0.5 McFarland standard, the turbidity is adjusted with broth to be equivalent to a 0.5 McFarland standard.
# [2] = tested on: E.coli S30 extract (bacterial protein synthesis); assay: E.coli S30 extract: inhibition of bacterial protein synthesis (luciferase); format: biochemical; settings: 37° C. for 1 hour
# Procedure: E.coli S30 extract: Inhibition of bacterial protein synthesis was determined using the E.coli S30 Extract System for Circular DNA (Promega catalog #L-2010) and Luciferase Assay Reagent (Promega catalog #E1500) with slight modifications to a published protocol. Fyfe, C., Sutcliffe, J.A. and Grossman, T.H. (2012) “Development and characterization of a Pseudomonas aeruginosa in vitro coupled transcription-translation assay system for evaluation of translation inhibitors” J. Microbiol. Methods 90(3), 256-261.
# Compounds were serial diluted in 0.5 mL microcentrifuge tubes by mixing and transferring 50 µL from the highest concentration to 50 µL of water, mixing and transferring 50 µL of this 2-fold dilution to 50 µL of water. This mixing and transferring was repeated so that there are a total of 8 tubes with serial dilutions of compound at 10× the desired screening concentration that are ultimately diluted to 1× by the addition of S30 luciferase synthesis mixture. Serial dilutions of compounds were added (2 µL) to wells in a black round bottom 96-well plate. Water (2 µL) was used as a “no inhibitor” control in 4 wells/plate. No DNA control reaction mixture (20 µL; see below) was used as a control in 4 wells/plate for background luminescence. S30 luciferase synthesis mixture (18 µL; see below) was added to wells with compounds or water mixture and incubated at 37° C. for 1 hour. Reactions were stopped by transferring to 4° C. refrigerator for 5 minutes then 25 µL of luciferase activity mix was added. Luminescence was measured using a BioTek Synergy HTX plate reader. % Inhibition was determined relative to no inhibitor controls.
# S30 luciferase synthesis mixture: • 445 µL S30 extract, circular • 712 µL S30 Premix without amino acids • 4.45 µL pBESTluc™ DNA (1 µg/ µL) • 78 µL complete amino acid mixture • 267 µL water
# No DNA control: • 20 µL S30 extract, circular • 32 µL S30 Premix without amino acids • 7 µL complete amino acid mixture • 21 µL water
# [3] = tested on: E.coli (Ec); assay: Broth microdilution MIC against E.coli (Ec); format: cell-based; settings: for MIC: Escherichia coli
# Procedure: as §1, §2, §3
# [4] = tested on: E.faecalis (Ef); assay: Broth microdilution MIC against E.faecalis (Ef); format: cell-based; settings: Enterococcus faecalis, read-out: Ef +bicarb 25 (MIC)
# Procedure: as §1, §2, §3
# [5] = tested on: S.aureus (Sa); assay: Broth microdilution MIC against S.aureus (Sa); format: cell-based; settings: Staphylococcus aureus, read-out: Sa + bicarb 25 (MIC)
# Procedure: as §1, §2, §3
# [6] = biological target: Rabbit Reticulocyte Lysate (eukaryotic protein synthesis); assay: Rabbit Reticulocyte Lysate: inhibition of eukaryotic protein synthesis (luciferase); format: biochemical; settings: 30° C. for 90 minutes, read-out: retic. IC50
# Procedure: Inhibition of eukaryotic protein synthesis was determined using the Rabbit Reticulocyte Lysate System, Nuclease-Treated from Promega (catalog #L-4960) with slight modifications to the manufacturer’s protocol. Compounds were serial diluted in 0.5 mL microcentrifuge tubes by mixing and transferring 50 µL from the highest concentration to 50 µL of water, mixing and transferring 50 µL of this 2-fold dilution to 50 µL of water. This mixing and transferring was repeated so that there are a total of 8 tubes with serial dilutions of compound at 10× the desired screening concentration that are ultimately diluted to 1× by the addition of rabbit reticulocyte luciferase synthesis mixture. Serial dilutions of compounds were added (2.5 µL) to wells in a black round bottom 96-well plate. Water (2.5 µL) was used as a “no inhibitor” control in 4 wells/plate. No RNA control reaction mixture (2 µL; see below) was used as a control in 4 wells/plate for background luminescence. Rabbit reticulocyte luciferase synthesis mixture (22.5 µL; see below) was added to wells with compounds or water mixture and incubated at 30° C. for 90 minutes. Luciferase assay reagent (25 µL) was added with luminescence measured using a BioTek Synergy HTX plate reader. % Inhibition was determined relative to no inhibitor controls.
# Rabbit reticulocyte luciferase synthesis mixture: • 1,000 µL rabbit reticulocyte lysate • 5.7 µL Luciferase Control RNA (1 µg/ µL) • 26 µL complete amino acid mixture • 395 µL water
# No RNA Control • 70 µL rabbit reticulocyte lysate • 2 µL complete amino acid mixture • 28 µL water
# [7] = tested on: P.aeruginosa (Pa); assay: Broth microdilution MIC against P.aeruginosa (Pa); format: cell-based; settings: for MIC: Pseudomonas aeruginosa, read-out: Pa +bicarb 25 (MIC)
# Procedure: as §1, §2, §3
# [8] = CAMHB supplemented with sodium bicarbonate 25 mM
# [9] = CAMHB supplemented with sodium bicarbonate 25 mM, read-out: E.coli + bicarb 25 (MIC)
# [10] = read-out: E.coli + bicarb 25 (MIC)
structure (smiles),measurement,setting,value
CC(C)(N)C(=O)N1CCN(C(=O)Nc2ccn(-c3ccc4c(c3)CCC(N[C@H]3CC[C@H](N)CC3)C4)c(=O)n2)CC1 (stereo partly drawn) [Compound 7],MIC,[1]; [8],> 32 µg/mL
same,IC50,[2],< 500 nM
same,MIC,[3]; [9],< 8 µg/mL
same,MIC,[4]; [8],< 8 µg/mL
same,MIC,[5]; [8],< 8 µg/mL
same,IC50,[6],≥ 1000 nM
same,MIC,[7]; [8],> 32 µg/mL
CC(C)(N)C(=O)N1CCN(C(=O)Nc2ccn(-c3ccc4c(c3)CCC(NC3CC5(CC(N)C5)C3)C4)c(=O)n2)CC1 (stereo not drawn) [Compound 8],MIC,[1]; [8],8 to 32 µg/mL
same,IC50,[2],< 500 nM
same,MIC,[3]; [9],< 8 µg/mL
same,MIC,[4]; [8],< 8 µg/mL
same,MIC,[5]; [8],< 8 µg/mL
same,IC50,[6],≥ 1000 nM
same,MIC,[7]; [8],8 to 32 µg/mL
"CC(C)(N)C(=O)N1CCN(C(=O)Nc2ccn(-c3ccc4c(c3)CCC(N[C@H]3CC[C@H](N)C3)C4)c(=O)n2)CC1 (stereo partly drawn) [Compound 9, 4-(2-amino-2-methylpropanoyl)-N-(1-(6-(((1S,3S)-3-aminocyclopentyl)amino)-5,6,7,8-tetrahydronaphthalen-2-yl)-2-oxo-1,2-dihydropyrimidin-4-yl)piperazine-1-carboxamide hydrochloride salt]",Ab +bicarb 25 (MIC),[1]; [8],+ (An MIC value (µg/mL) that is 32 µg/mL or greater)
same,IC50,[2],< 500 nM
same,E.coli + bicarb 25 (MIC),[3]; [8],+++ (An MIC value (µg/mL) that is less than 8 µg/mL)
same,MIC,[3]; read-out: E. coli + bicarb 6.25 (MIC),< 8 µg/mL
same,MIC,[4],< 8 µg/mL
same,MIC,[5],< 8 µg/mL
same,IC50,[6],≥ 1000 nM
same,Pa +bicarb 25 (MIC),[7]; [8],+ (An MIC value (µg/mL) that is 32 µg/mL or greater)
CN(C1CCc2cc(-n3ccc(NC(=O)N4CCN(C(=O)C(C)(C)N)CC4)nc3=O)ccc2C1)C1CC2(CC(N)C2)C1 (stereo not drawn) [Compound 11],MIC,[1]; [8],> 32 µg/mL
same,IC50,[2],500 to 1000 nM
same,MIC,[3]; [9],< 8 µg/mL
same,MIC,[4]; [8],< 8 µg/mL
same,MIC,[5]; [8],< 8 µg/mL
same,IC50,[6],≥ 1000 nM
same,MIC,[7]; [8],> 32 µg/mL
"CC(C)(N)C(=O)N1CCN(C(=O)Nc2ccn(-c3ccc4c(c3)OCC(N3C[C@@H]5[C@@H](CN)[C@@H]5C3)C4)c(=O)n2)CC1 (stereo partly drawn) [Compound 12, exo-4-(2-amino-2-methylpropanoyl)-N-(1-(3-(-6-(aminomethyl)-3-azabicyclo[3.1.0]hexan-3-yl)chroman-7-yl)-2-oxo-1,2-dihydropyrimidin-4-yl)piperazine-1-carboxamide hydrochloride salt]",MIC,[1]; [8],> 32 µg/mL
same,IC50,[2],≥ 1000 nM
same,MIC,[3]; [9],< 8 µg/mL
same,MIC,[4]; [8],> 32 µg/mL
same,MIC,[5]; [8],8 to 32 µg/mL
same,IC50,[6],≥ 1000 nM
same,MIC,[7]; [8],> 32 µg/mL
"CC(C)(N)C(=O)N1CCN(C(=O)Nc2ccn(-c3ccc4c(c3)OCC(N3C[C@@H]5[C@@H](N)[C@@H]5C3)C4)c(=O)n2)CC1 (stereo partly drawn) [Compound 13, Hydrochloride Salt]",MIC,[1]; [8],8 to 32 µg/mL
same,IC50,[2],≥ 1000 nM
same,MIC,[3]; [9],8 to 32 µg/mL
same,MIC,[4]; [8],8 to 32 µg/mL
same,MIC,[5]; [8],8 to 32 µg/mL
same,IC50,[6],≥ 1000 nM
same,MIC,[7]; [8],8 to 32 µg/mL
CC(C)(N)C(=O)N1CCN(C(=O)Nc2ccn(-c3ccc4c(c3)OCC(N3CC[C@@H](CN)C3)C4)c(=O)n2)CC1 (stereo partly drawn) [Compound 14],MIC,[1]; [8],8 to 32 µg/mL
same,IC50,[2],≥ 1000 nM
same,MIC,[3]; [9],< 8 µg/mL
same,MIC,[4]; [8],8 to 32 µg/mL
same,MIC,[5]; [8],< 8 µg/mL
same,IC50,[6],≥ 1000 nM
same,MIC,[7]; [8],8 to 32 µg/mL
"CN(C1CCc2cc(-n3ccc(NC(=O)N4CCN(C(=O)C(C)(C)N)CC4)nc3=O)ccc2C1)[C@H]1CC[C@H](N)CC1 (stereo partly drawn) [Compound 15, 4-(2-amino-2-methylpropanoyl)-N-(1-(6-(((1r,4r)-4-aminocyclohexyl)(methyl)amino)-5,6,7,8-tetrahydronaphthalen-2-yl)-2-oxo-1,2-dihydropyrimidin-4-yl)piperazine-1-carboxamide hydrochloride salt]",MIC,[1]; [8],8 to 32 µg/mL
same,IC50,[2],< 500 nM
same,MIC,[3]; [9],< 8 µg/mL
same,MIC,[4]; [8],< 8 µg/mL
same,MIC,[5]; [8],< 8 µg/mL
same,IC50,[6],≥ 1000 nM
same,MIC,[7]; [8],8 to 32 µg/mL
"CCN(C1CCc2cc(-n3ccc(NC(=O)N4CCN(C(=O)C(C)(C)N)CC4)nc3=O)ccc2C1)[C@H]1CC[C@H](N)CC1 (stereo partly drawn) [Compound 16, 4-(2-Amino-2-methylpropanoyl)-N-(1-(6-(((trans)-4-aminocyclohexyl)(ethyl)amino)-5,6,7,8-tetrahydronaphthalen-2-yl)-2-oxo-1,2-dihydropyrimidin-4-yl)piperazine-1-carboxamide hydrochloride salt]",MIC,[1],8 to 32 µg/mL
same,IC50,[2],< 500 nM
same,MIC,[3]; [10],< 8 µg/mL
same,MIC,[4],< 8 µg/mL
same,MIC,[5],< 8 µg/mL
same,IC50,[6],≥ 1000 nM
same,MIC,[7],8 to 32 µg/mL
"CC(C)(N)C(=O)N1CCN(C(=O)Nc2ccn(-c3ccc4c(c3)CCC(N(CC3CC3)[C@H]3CC[C@H](N)CC3)C4)c(=O)n2)CC1 (stereo partly drawn) [Compound 17, 4-(2-Amino-2-methylpropanoyl)-N-(1-(6-(((trans)-4-aminocyclohexyl)(cyclopropylmethyl)amino)-5,6,7,8-tetrahydronaphthalen-2-yl)-2-oxo-1,2-dihydropyrimidin-4-yl)piperazine-1-carboxamide hydrochloride salt]",MIC,[1],8 to 32 µg/mL
same,IC50,[2],500 to 1000 nM
same,MIC,[3]; [10],< 8 µg/mL
same,MIC,[4],< 8 µg/mL
same,MIC,[5],< 8 µg/mL
same,IC50,[6],≥ 1000 nM
same,MIC,[7],8 to 32 µg/mL
CC(C)(N)C(=O)N1CCN(C(=O)Nc2ccn(-c3ccc4c(c3)OCC(N3CC[C@H](CN)C3)C4)c(=O)n2)CC1 (stereo partly drawn) [Compound 18],MIC,[1]; [8],8 to 32 µg/mL
same,IC50,[2],≥ 1000 nM
same,MIC,[3]; [9],< 8 µg/mL
same,MIC,[4]; [8],8 to 32 µg/mL
same,MIC,[5]; [8],< 8 µg/mL
same,IC50,[6],≥ 1000 nM
same,MIC,[7]; [8],8 to 32 µg/mL
